Measurements reported in US10350188B2, “Use of Neu1 sialidase inhibitors in the treatment of cancer” (priority 2011, dated 2019).

Key:
MiaPaCa-2 cells = assay: Cell viability of MiaPaCa-2 pancreatic cancer cells in culture (MTT or WST-1, 72 hrs); assay type: cell-based, human; details: for LD50 MiaPaCa-2: oseltamivir phosphate analogues (TD), WST-1, 72 hrs; for Chemo-drug LD50 / Chemo-drug sensitivity with oseltamivir phosphate (fold increase): MiaPaCa-2; for Chemo-drug LD50: MTT, 72 hrs
PANC-1 cells = assay: Cell viability of PANC-1 pancreatic cancer cells in culture (MTT or WST-1, 72 hrs); assay type: cell-based, human; details: for LD50 PANC-1: oseltamivir phosphate analogues (TD), WST-1, 72 hrs; for Chemo-drug LD50 / Chemo-drug sensitivity with oseltamivir phosphate (fold increase): PANC-1; for Chemo-drug LD50: MTT, 72 hrs
BxPC-3 cells = assay: Cell viability of BxPC-3 pancreatic cancer cells in culture (MTT or WST-1, 72 hrs); assay type: cell-based, human; details: BxPC-3; for Chemo-drug LD50: MTT, 72 hrs
Neu1 sialidase = Neu1 sialidase (Mus musculus, UniProt O35657); assay: LPS-induced Neu1 sialidase activity in live BMA macrophage cells (4-MUNANA); assay type: cell-based; set-up: endogenous in cells; host or cells: BMA macrophage cells; details: LPS-induced Neu1 sialidase activity, live BMA macrophage cells
Method: TLR-expressing BMA macrophage cells were grown on 12 mm circular glass slides in culture media containing DMEM supplemented with 10% fetal calf serum. […] Fluorescent images were taken after 2-3 minutes using epi-fluorescent microscopy (Zeiss Imager M2, 40× objective).
This recently developed assay was used to detect sialidase activity on the surface of viable cells. […] The inhibitory potency of a series of amide-linked C9 modified DANA (2-deoxy-2,3-dehydro-D-N-acetylneuraminic add) analogues on lipopolysaccharide (LPS)-induced Neu1 sialidase activity was assessed in live BMA macrophage cells.

[1] = tested on: MiaPaCa-2-eGFP pancreatic cancer cells implanted in RAG2/Cγ double mutant Balbc xenograft mice; assay: MiaPaCa-2-eGFP pancreatic cancer xenograft in RAG2/Cγ double mutant Balbc mice; assay type: in vivo, mouse; details: for Liver metastasis percent inhibition: vs untreated day 51
Method: Tumour measurements were taken twice a week.
MiaPaCa-2-eGFP pancreatic cancer cells at 1.5×10^6 in 0.2 mL were implanted subcutaneously in the right back flank of these mice. Each mouse in the study was identified by an ear punch number. Twice a week each mouse following implantation of the cancer cells was monitored for tumour volume growth (length and width) at the site of implantation, body weights, and body condition scoring. Scoring the body condition of rodents is a non-invasive method for assessing health and establishing endpoints for adults where body weight is not a viable monitoring tool, such as with tumour models. Body condition scores (BC) range from 1(emaciation) to 5 (obesity). An anticipated BCS of 2—under conditioned—or lower, requires justification in the protocol. Scores are determined by frequent visual and hands-on examination of each animal. The hands-on evaluation is done by gently holding the mouse by the base of the tail and passing a finger over the sacroiliac bones. The findings are matched to the descriptions and diagrams of BC ranges to determine a score. Scores are documented for each animal.

[2] = co-treatment oseltamivir phosphate 730 μM
[3] = co-treatment oseltamivir phosphate 1460 μM
[4] = chemo-drug + oseltamivir phosphate 10 mg/kg daily, Altima day 70, Abraxane day […]
[5] = chemo-drug alone, Altima 100 mg/kg day 70, Abraxane 200 mg/kg day 87
[6] = day 48, chemo-drug (alimta 100, abraxane 200 mg/kg) + oseltamivir phosphate 10 mg/kg daily i.p.
[7] = day 48, chemo-drug alone (alimta 100 mg/kg, abraxane 200 mg/kg i.p.)
[8] = day 63, chemo-drug (alimta 100, abraxane 200 mg/kg) + oseltamivir phosphate 10 mg/kg daily
[9] = day 63, chemo-drug alone (alimta 100 mg/kg, abraxane 200 mg/kg)
[10] = day 62, tamoxifen 0.1 mg/kg alone or with oseltamivir phosphate 100 mg/kg daily
[11] = day 66, tamoxifen 0.1 mg/kg alone or with oseltamivir phosphate 100 mg/kg daily

## CC(=O)N[C@@H]1CC[C@@](O)(C(=O)[O-])[C@H]2OC(C)(C)O[C@@H]12.[Na+]
MiaPaCa-2 cells
  LD50 MiaPaCa-2: 2.1 µM
PANC-1 cells
  LD50 PANC-1: >1000 µM

## CC(=O)N[C@H]1[C@@H]2OC(C)(C)O[C@@H]2C(C(=O)[O-])=C[C@H]1O.[Na+]
MiaPaCa-2 cells
  LD50 MiaPaCa-2: 2.8 µM
PANC-1 cells
  LD50 PANC-1: 349 µM

## O=c1[nH]cc(F)c(=O)[nH]1 [5-fluoruracil, Fluorouracil]
MiaPaCa-2 cells; [2]
  Chemo-drug LD50: 0.6 µM
MiaPaCa-2 cells; [3]
  Chemo-drug LD50: 0.078 µM
MiaPaCa-2 cells; oseltamivir phosphate 0 μM
  Chemo-drug LD50: 2.20 µM
MiaPaCa-2 cells; oseltamivir phosphate 730 μM
  Chemo-drug sensitivity with oseltamivir phosphate (fold increase): 4 fold increase
MiaPaCa-2 cells; oseltamivir phosphate 1460 μM
  Chemo-drug sensitivity with oseltamivir phosphate (fold increase): 28 fold increase
PANC-1 cells; [2]
  Chemo-drug LD50: 0.8 µM
PANC-1 cells; [3]
  Chemo-drug LD50: 0.078 µM
PANC-1 cells; oseltamivir phosphate 0 μM
  Chemo-drug LD50: 3.1 µM
PANC-1 cells; oseltamivir phosphate 730 μM
  Chemo-drug sensitivity with oseltamivir phosphate (fold increase): 4 fold increase
PANC-1 cells; oseltamivir phosphate 1460 μM
  Chemo-drug sensitivity with oseltamivir phosphate (fold increase): 40 fold increase
BxPC-3 cells; [2]
  Chemo-drug LD50: 0.78 µM
BxPC-3 cells; [3]
  Chemo-drug LD50: 0.078 µM
BxPC-3 cells; oseltamivir phosphate 0 μM
  Chemo-drug LD50: 12.5 µM
BxPC-3 cells; oseltamivir phosphate 730 μM
  Chemo-drug sensitivity with oseltamivir phosphate (fold increase): 16 fold increase
BxPC-3 cells; oseltamivir phosphate 1460 μM
  Chemo-drug sensitivity with oseltamivir phosphate (fold increase): 160 fold increase

## CCOC1C(C(=O)[O-])=C[C@@H](O)[C@@H](NC(C)=O)[C@@H]1O.[Na+] (stereo partly shown) [A1, Sodium; 4-acetylamino-6-ethoxy-3,5-dihydroxy-cyclohex-1-enecarboxylate]
MiaPaCa-2 cells
  LD50 MiaPaCa-2: 132 µM
PANC-1 cells
  LD50 PANC-1: 848 µM

## CC(=O)N[C@H]1[C@H](O)C=C(C(=O)[O-])C[C@@H]1N.[Na+] [A2, Sodium; 4-acetylamino-5-amino-3-hydroxy-cyclohex-1-enecarboxylate]
MiaPaCa-2 cells
  LD50 MiaPaCa-2: 1.97 µM
PANC-1 cells
  LD50 PANC-1: 0.01 µM

## CC(=O)N[C@@H]1/C(=N/O)C=C(C(=O)[O-])[C@H]2OC(C)(C)O[C@H]21.[Na+] [A5, Sodium; 7-acetylamino-6-hydroxyimino-2,2-dimethyl-3a,6,7,7a-tetrahydro-benzo[1,3]dioxole-4-carboxylate]
MiaPaCa-2 cells
  LD50 MiaPaCa-2: 24 µM
PANC-1 cells
  LD50 PANC-1: 3 µM

## CCC(CC)O[C@@H]1C=C(C(=O)[O-])[C@H]2OC(C)(C)O[C@H]2[C@H]1NC(C)=O.[Na+] [A6, Sodium; 7-acetylamino-6-(1-ethyl-propoxy)-2,2-dimethyl-3a,6,7,7a-tetrahydro-benzo[1,3]dioxole-4-carboxylate]
MiaPaCa-2 cells
  LD50 MiaPaCa-2: >2000 µM
PANC-1 cells
  LD50 PANC-1: >2000 µM

## CCCC(=O)NC[C@H](O)[C@H](O)C1OC(C(=O)O)=CC(O)[C@H]1NC(C)=O (stereo partly shown) [B1]
Neu1 sialidase
  IC50: 0.0138 µM

## CCC(C)C(=O)NC[C@H](O)[C@H](O)C1OC(C(=O)O)=CC(O)[C@H]1NC(C)=O (stereo partly shown) [B2]
Neu1 sialidase
  IC50: 29.7 µM

## CC(=O)N[C@@H]1C(O)C=C(C(=O)O)OC1[C@@H](O)[C@@H](O)CNC(=O)C1CCCCC1 (stereo partly shown) [B3]
Neu1 sialidase
  IC50: 0.0039 µM

## CC(=O)NC[C@H](O)[C@H](O)C1OC(C(=O)O)=CC(O)[C@H]1NC(C)=O (stereo partly shown) [B4]
Neu1 sialidase
  IC50: 2.98 µM

## CCCCC(=O)NC[C@H](O)[C@H](O)C1OC(C(=O)O)=CC(O)[C@H]1NC(C)=O (stereo partly shown) [B5]
Neu1 sialidase
  IC50: 1.45 µM

## CC(=O)N[C@@H]1C(O)C=C(C(=O)O)OC1[C@@H](O)[C@@H](O)CNC(=O)C1CCCC1 (stereo partly shown) [B6]
Neu1 sialidase
  IC50: 76.6 µM

## CC(=O)N[C@@H]1C(O)C=C(C(=O)O)OC1[C@@H](O)[C@@H](O)CNC(=O)C(C)C (stereo partly shown) [B7]
Neu1 sialidase
  IC50: 683 µM

## CCC(CC)C(=O)NC[C@H](O)[C@H](O)C1OC(C(=O)O)=CC(O)[C@H]1NC(C)=O (stereo partly shown) [B8]
Neu1 sialidase
  IC50: 1050 µM

## CC(=O)N[C@@H]1C(O)C=C(C(=O)O)OC1[C@@H](O)[C@@H](O)CNC(=O)C1CC1 (stereo partly shown) [B9]
Neu1 sialidase
  IC50: 1120 µM

## CC(=O)N[C@@H]1C(O)C=C(C(=O)O)OC1[C@@H](O)[C@@H](O)CNC(=O)C(C)(C)C (stereo partly shown) [B10]
Neu1 sialidase
  IC50: 411 µM

## Nc1nc2[nH]cc(CCc3ccc(C(=O)N[C@@H](CCC(=O)O)C(=O)O)cc3)c2c(=O)[nH]1 [alimta, Pemetrexed]
[1]; chemo-drug (Alimta 100, Abraxane 200 mg/kg) + oseltamivir phosphate 10 mg/kg daily, untreated control day 51
  Survival of tumour bearing mice: 70 days
[1]; chemo-drug + oseltamivir phosphate 10 mg/kg daily, Altima 100 mg/kg day 70, Abraxane 200 mg/kg day […]
  Liver Metastasis (avg no. nodules): 3
[1]; [4]
  Metastases (size, mm): 0.2-0.5 mm
  Liver metastasis percent inhibition: 91%
[1]; [5]
  Liver Metastasis (avg no. nodules): 5
  Metastases (size, mm): 0.2-1.0 mm
  Liver metastasis percent inhibition: 85%
[1]; chemo-drug monotherapy (Alimta 100 mg/kg, Abraxane 200 mg/kg), untreated control day 51
  Survival of tumour bearing mice: 70 days
[1]; [6]
  % Inhibition To untreated: 77%
  Tumour volume: 189 mm^3
[1]; day 48, chemo-drug (alimta 100, abraxane 200 mg/kg) + oseltamivir phosphate 10 mg/kg daily i.p., listed as Almita
  % Inhibition To untreated: 77%
[1]; [7]
  % Inhibition To untreated: 72%
  Tumour volume: 225 mm^3
[1]; [8]
  % Inhibition To untreated: 3%
  Tumour volume: 787 mm^3
[1]; [9]
  % Inhibition To untreated: 40%
  Tumour volume: 482 mm^3

## CC/C(=C(\c1ccccc1)c1ccc(OCCN(C)C)cc1)c1ccccc1 [tamoxifen, Tamoxifen]
MiaPaCa-2 cells; [2]
  Chemo-drug LD50: 0.8 µM
MiaPaCa-2 cells; [3]
  Chemo-drug LD50: 0.078 µM
MiaPaCa-2 cells; oseltamivir phosphate 0 μM
  Chemo-drug LD50: 7.0 µM
MiaPaCa-2 cells; oseltamivir phosphate 730 μM
  Chemo-drug sensitivity with oseltamivir phosphate (fold increase): 9 fold increase
MiaPaCa-2 cells; oseltamivir phosphate 1460 μM
  Chemo-drug sensitivity with oseltamivir phosphate (fold increase): 90 fold increase
[1]; day 59, tamoxifen 0.1 mg/kg alone or with oseltamivir phosphate 100 mg/kg daily
  % Inhibition To untreated: 57%
[1]; day 59, tamoxifen 0.1 mg/kg i.p. alone or with oseltamivir phosphate 100 mg/kg i.p. daily
  Tumour volume: 960 ± 208 (4) mm^3
[1]; [10]
  % Inhibition To untreated: 21%
  Tumour volume: 1738 ± 328 (4) mm^3
[1]; [11]
  % Inhibition To untreated: 0%
  Tumour volume: 2650 ± 360 (3) mm^3
[1]; tamoxifen 0.1 mg/kg alone or with oseltamivir phosphate 100 mg/kg daily, untreated control day 60
  Survival of tumour bearing mice: 66 days
PANC-1 cells; [2]
  Chemo-drug LD50: 0.8 µM
PANC-1 cells; [3]
  Chemo-drug LD50: 0.078 µM
PANC-1 cells; oseltamivir phosphate 0 μM
  Chemo-drug LD50: 12.5 µM
PANC-1 cells; oseltamivir phosphate 730 μM
  Chemo-drug sensitivity with oseltamivir phosphate (fold increase): 16 fold increase
PANC-1 cells; oseltamivir phosphate 1460 μM
  Chemo-drug sensitivity with oseltamivir phosphate (fold increase): 160 fold increase
BxPC-3 cells; [2]
  Chemo-drug LD50: 3 µM
BxPC-3 cells; [3]
  Chemo-drug LD50: 0.078 µM
BxPC-3 cells; oseltamivir phosphate 0 μM
  Chemo-drug LD50: 9 µM
BxPC-3 cells; oseltamivir phosphate 730 μM
  Chemo-drug sensitivity with oseltamivir phosphate (fold increase): 3 fold increase
BxPC-3 cells; oseltamivir phosphate 1460 μM
  Chemo-drug sensitivity with oseltamivir phosphate (fold increase): 115 fold increase
